The record followed here is patent US20210290818A1, “SCAFFOLDING MATERIAL, METHODS AND USES” (LOCATE THERAPEUTICS LIMITED, priority 2016, published 2021).

Where a name gives a salt, the structure may show the parent alone.

The nature of this data set: In house cohesion test of pastes (mass loss after sintering and immersion in water). It counts as physicochemical. The note with it: for Effect of plasticiser in liquid carrier on paste cohesion: PLGA 95:5/PEG400/CS pellets, FIG. 4. The method, then: Pastes were prepared by mixing particles with a liquid carrier and their setting was assessed using an ‘in house’ cohesion test. Briefly, following paste sintering, aluminium foils containing the pastes were placed onto a sieve mesh and immersed to a depth of around 1 cm of water for 1 minute (FIG. 1). Afterwards, they were carefully removed from the sieve. The samples were freeze-dried and weighed so that mass loss could be estimated.
A 355 μm sieve (Endecotts, BS410/1986) was placed on to its dedicated collection tray. • 2×100 mg of particles were manually mixed in an aluminium foil (4×4 cm circa) with 70 μl of each liquid carrier. • The obtained pastes were left to sinter in a sealed plastic bag with humidity >90% for different times. • Following sintering at RT or 37° C. in a humidified environment (>90% RH), the aluminium foils containing the pastes were placed onto the sieve mesh. • A constant, gentle, circa 7 ml/sec flow of water (Millipore, Direct-Q® 3 UV) was applied to the sieve mesh, until the samples became immersed in circa 1 cm of water. • Following immersion, samples were allowed to remain immersed in the head of water for circa 1 minute. • After the 1 minute, the sieve was removed from the sieve tray and the aluminium foils containing the samples were carefully removed from the sieve. • The samples with the aluminium foil were freeze-dried and weighed so that mass loss could be estimated. • The sieve tray (which was still filled with water) was visually inspected for the presence of particles that may have been lost from the samples during.

In the case of `CC(=O)OCC(COC(C)=O)OC(C)=O` [TA, triacetin], the “Effect of plasticiser in liquid carrier on paste cohesion” value is on record as “behave in a similar way”.

Take `CCOC(=O)CC(O)(CC(=O)OCC)C(=O)OCC` [TEC, TriEthyl Citrate]: the “Effect of plasticiser in liquid carrier on paste cohesion” value was “behave in a similar way”.

`CCO` [ethanol, Ethanol]: under “PLGA50:50/PEG400/SIM pellets, sintering 10 to 60 min at 37° C., FIG. 6”, the “Importance of plasticiser in liquid carrier for paste setting” value was “not important for paste setting”.
